Measured values from patent US8337858B2, “Extracts of Aphanizomenon Flos Aquae and nutritional, cosmetic and pharmaceutical compositions containing the same” (Nutratec S.R.L., priority 2006, dated 2012).
Read-outs that look alike come from different tables or passages of the source.

What was measured:
[1] = ORAC (Oxygen Radical Absorbance Capacity) assay with fluorescein and AAPH; format: biochemical; settings: for ORACFL value expressed per mg: recalculated from Ou et al., 2001; for ORAC value: fluorescein, AAPH 4 mM, 37° C.
Procedure: The ORAC assay was carried out at 37° C. on a FLUOstar OPTIMA spectrofluorimeter (BGM LABTECH, Germany) at 485 nm excitation and 520 nm emission, using the method of Ou et al. (32) with minor modifications. Briefly, in the final assay mixture, fluorescein (FL) (0.05 μM) was used as a target of free radical attack, with AAPH (4 mM) as a peroxyl radical generator. Trolox (1 μM) was used as a control standard and phosphate buffer as a blank. The concentrations of tested compounds in the assay mixture ranged from 0.025 μM to 2 μM. All substances were dissolved and diluted with 75 mM Na-phosphate buffer pH 7; PCB solution was made by dissolving the compound first in ethanol and then bringing the solution to the desired concentration with the buffer. All samples were run in triplicate. Fluorescence was recorded every 5 min after AAPH was added. Final results (ORAC values) were calculated using the differences in the areas under the fluorescence decay curves (AUC) between the sample and blank and expressed as Trolox equivalents: ORAC value=[(AUCsample−AUCblank)/(AUCtrolox−AUCblank)]×(molaritytrolox/molaritysample)
To evaluate the antioxidant capacity of the extract in terms of the ORAC test, we used the same methodology we used to test the ORAC for PC and PCB. In order to test both the water soluble and the lipid soluble components of the AFA extract, we first prepared the two water and lipid soluble extracts, as follows.
Preparation of the Water Soluble Extract • Weigh 10 mg of extract in 1 ml of distilled water and homogenize for 1 min through a mechanical potter. • Centrifuge at 2500 rpm for 10′ at 4° C. to remove cellular debris. • Collect the supernatant and resuspend the pellet in 1 ml of water. • Homogenize for 1 min with a mechanical potter. • Centrifuge at 2500 rpm for 10′ at 4° C. • Collect the supernatant and mix with that obtained from the first water extraction. • Preserve the water extract (with a blue color for the presence of the PC) at +4 o-20° C.
Preparation of the Lipid Soluble Extract • Resuspend the pellet obtained from the previous extraction in 1 ml of acetone. • Homogenize for 1 min with a mechanical potter. • Centrifuge at 2500 rpm for 10′ at 4° C. • Collect the supernatant and resuspend the pellet in 1 ml of acetone. • Homogenize for 1 min with a mechanical potter. • Centrifuge at 2500 rpm for 10′ at 4° C. • Collect the supernatant and mix with that obtained from the first extraction with acetone. • Preserve the lipophilic extract (with an orange color for the presence of carotenes) at +4°-20° C.

[2] = Ou et al., 2001; cited from earlier work
Jurkat cells = test: Intracellular dichlorofluorescein fluorescence in Jurkat cells oxidized with H2O2; format: cell-based
Procedure: Starting from the Basic extract, and following the methodology already described, we have purified the AFA-phycocyanin, with its C-PC/PEC complex, to test its antioxidant properties on live cultured cells. The Jurkat cells (immortalized line of leucemia T-lymphocytes) have been subjected to oxidative stress with 500 μM H2O2, together or without increasing dosages of AFA-PC and PCB. The fluorescence emitted by the intracellular probe (dichlorofluorescein), following oxydation from H2O2, has been recorded after 30 minutes of incubation with H2O2 through a fluorimeter (exc. at 492 nm and emission at 520 nm). By incubating cells with both AFA-PC (range 0.1-10 μM) and 500 μM H2O2 for 30 minutes we observe a dose-dependent protective effect with a reduction of intracellular fluorescence induced by H2O2, with an IC50 of 0.5 μM, and a 100% inhibition (non-oxidized cells) at 10 μM (FIG. 13).
The antioxidant properties of the whole PC, composed of C-PC and PEC, resides in its chromophores, which are phycocyanibilin (PCB) for C-PC and both PCB and PVB (phycoviolobilin) for PEC. We have purified the C-PC chromophore PCB, to test it on cultured cells oxidized with H2O2 (range FCB 0.1-40 μM). Also in this case we observe a dose-dependent antioxidant effect with an IC50 of 0.5 μM, and a 100% inhibition (non-oxidized cells) at 40 μM (FIG. 13).
Most importantly, to evaluate the cellular absorption of PC and PCB, both compounds have been pre-incubated for 2 hrs. with the cells; afterwards, the medium has been washed, to exclude any unabsorbed PC and PCB, and the cells have been oxidized for 30 min. with H2O2. As shown by the FIG. 14, there is a dose-dependent inhibition of intracellular fluorescence. This means that the cell is able to retain both antioxidant molecules, either in the membrane or in the cytoplasm.

COX-2 = molecular target: T1, COX-2 (Homo sapiens, UniProt P35354); test: COX Inhibitor Screening Assay (Cayman), COX-2; format: biochemical; settings: 0-15 μM
T1 construct: purchased Cayman
T1 sequence (P35354 18-604): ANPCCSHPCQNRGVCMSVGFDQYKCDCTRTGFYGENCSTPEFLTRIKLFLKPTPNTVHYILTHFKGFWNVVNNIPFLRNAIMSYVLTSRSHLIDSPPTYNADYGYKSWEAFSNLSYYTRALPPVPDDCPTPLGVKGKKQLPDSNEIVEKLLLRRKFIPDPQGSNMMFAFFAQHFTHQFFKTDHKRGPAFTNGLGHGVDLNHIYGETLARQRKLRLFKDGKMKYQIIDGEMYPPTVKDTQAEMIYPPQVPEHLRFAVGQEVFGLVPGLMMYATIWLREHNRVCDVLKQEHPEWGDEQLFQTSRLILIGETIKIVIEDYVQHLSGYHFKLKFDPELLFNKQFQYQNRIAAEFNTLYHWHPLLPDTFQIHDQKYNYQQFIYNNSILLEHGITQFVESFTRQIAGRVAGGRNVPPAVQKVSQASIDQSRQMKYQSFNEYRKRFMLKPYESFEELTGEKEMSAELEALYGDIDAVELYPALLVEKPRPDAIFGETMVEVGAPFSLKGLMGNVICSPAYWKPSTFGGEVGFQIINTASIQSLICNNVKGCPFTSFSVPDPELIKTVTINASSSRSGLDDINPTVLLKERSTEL
Procedure: (§1) Given that the phycocyanins from Klamath AFA algae are different from the ones from Spirulina, ands that no test has ever been done on their effect on the COX enzymes, we decided to perform such test through the immunoenzymatic kit “COX Inhibitor Screening Assay” of the Cayman company. We thus evaluated the COX-1 and COX-2 inhibition by the AFA extract (both the water soluble part in water, and the lipid soluble in acetone; range 25-200 μg/ml); by the pure PC (0.03-3 μM) and PCB (0-15 μM). The results are shown in FIG. 29, presenting the graphic of the percent activity of COX-1 and COX-2 at the different concentrations of AFA extract, PC and PCB.

[3] = tested on: human plasma oxidized by CuCl2; test: MDA (TBA test) formation in human plasma oxidized by CuCl2; settings: read-out: IC50, metal-induced oxidation of plasma lipids (MDA); plasma incubated 2 hours at 37° C. with CuCl2 (FIG. 9A panel B)
COX-1 = molecular target: T2, COX-1 (Ovis aries, UniProt P05979); test: COX Inhibitor Screening Assay (Cayman), COX-1; format: biochemical
T2 construct: purchased Cayman
T2 sequence (P05979 25-600): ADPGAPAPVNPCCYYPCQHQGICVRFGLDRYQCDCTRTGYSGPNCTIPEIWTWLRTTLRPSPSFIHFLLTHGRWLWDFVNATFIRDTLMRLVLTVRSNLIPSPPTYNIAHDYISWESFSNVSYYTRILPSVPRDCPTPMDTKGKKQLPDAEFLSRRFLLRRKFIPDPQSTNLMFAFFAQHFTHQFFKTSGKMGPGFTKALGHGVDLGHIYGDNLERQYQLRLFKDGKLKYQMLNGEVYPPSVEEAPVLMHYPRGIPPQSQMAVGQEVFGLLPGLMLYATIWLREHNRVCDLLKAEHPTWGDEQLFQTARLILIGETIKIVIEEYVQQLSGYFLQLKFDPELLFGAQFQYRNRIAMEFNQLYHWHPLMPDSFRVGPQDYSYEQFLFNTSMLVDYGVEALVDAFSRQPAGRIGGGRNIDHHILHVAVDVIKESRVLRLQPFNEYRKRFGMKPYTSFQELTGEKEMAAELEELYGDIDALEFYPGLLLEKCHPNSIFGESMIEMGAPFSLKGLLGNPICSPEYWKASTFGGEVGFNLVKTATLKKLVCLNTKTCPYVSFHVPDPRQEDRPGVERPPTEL
Procedure: as §1

## Oc1cc(O)c2c(c1)O[C@H](c1ccc(O)c(O)c1)[C@@H](O)C2 [(+)-catechin]
[1]
  ORACFL value expressed per mg: 23.3 μmol Trolox/mg compound
[2]
  ORACFL value: 6.76 μmol Trolox/μmol compound

## O=c1c(O)c(-c2ccc(O)c(O)c2)oc2cc(O)cc(O)c12 [quercetin]
[1]
  ORACFL value expressed per mg: 24.0 μmol Trolox/mg compound
[2]
  ORACFL value: 7.28 μmol Trolox/μmol compound

## O=C1O[C@H]([C@@H](O)CO)C(O)=C1O [AA]
[1]
  ORAC value: 0.75 Trolox equiv.

## N[C@@H](CCC(=O)N[C@@H](CS)C(=O)NCC(=O)O)C(=O)O [GSH, reduced glutathione]
[1]
  ORAC value: 0.57 Trolox equiv.

## phycocyanobilin [PCB]
[1]
  ORAC value expressed per mg: 37.0 μmol Trolox/mg
  ORAC value: 22.18 Trolox equiv.
Jurkat cells; 40 μM, together with H2O2
  inhibition of intracellular fluorescence: 100%
Jurkat cells; incubated 30 minutes with cells without H2O2
  oxidative effect (increase of intracellular fluorescence): do not have any oxidative effect
Jurkat cells; incubated 2 hrs. with cells
  oxidative effect (increase of intracellular fluorescence): did not produce any oxidative effect
Jurkat cells; incubated together with 500 μM H2O2 for 30 minutes (FIG. 13), read-out: IC50, reduction of intracellular fluorescence induced by H2O2
  IC50: 500 nM
Jurkat cells; pre-incubated 2 hrs., medium washed, then H2O2 30 min (FIG. 14)
  protection, absorption test: more than 90%
Jurkat cells; pre-incubated 2 hrs., medium washed, then H2O2 30 min (FIG. 14), read-out: IC50, inhibition of intracellular fluorescence, absorption test
  IC50: 1900 nM
COX-2
  COX-2 inhibition: scarcely inhibitor of the COX-2
[3]
  IC50: ~160 nM
COX-1
  effect on COX-1 activity: increases the COX-1 activity
